# Marks after values point to notes of the source that are not given here.
# Tests used:
# Phytophthora infestans = experiment: microbe, parasite or virus in culture; assay type: cell-based; settings: for Eff. % (inhibition of fungal growth): 8 days incubation
# Pythium ultimum = Pythium ultimum in vitro cell test; assay type: cell-based; settings: 4 days incubation
# Description: Pythium ultimum In Vitro Cell Test
# • Solvent: DMSO • Culture medium: 14.6 g anhydrous D-glucose (VWR), 7.1 g Mycological Peptone (Oxoid), 1.4 g granulated Yeast Extract (Merck), QSP liter • Inoculum: mycelial suspension
# Fungicides were solubilized in DMSO and the solution used to prepare the required range of concentrations. The final concentration of DMSO used in the assay was ≤1%.
# Inoculum was prepared from a pre-culture of P. ultimum grown in liquid medium by homogenization using a blender. The concentration of ground mycelium in the inoculum was estimated and adjusted to the desired optical density (OD).
# Fungicides were evaluated for their ability to inhibit mycelium growth in liquid culture assay. The compounds were added in the desired concentrations to culture medium containing the mycelial suspension. After 4 days of incubation, the fungicidal efficacy of compounds was determined by spectrometric measurement of mycelium growth. Inhibition of fungal growth was determined by comparing the absorbance values in wells containing the fungicides with the absorbance in control wells without fungicides.
# [1] = pH 2.7
# physchem = settings: pH 2.7
# [2] = 0.25 μg/mL of active ingredient
SMILES,Eff. % (inhibition of fungal growth) (Phytophthora infestans; 20 μg/mL of active ingredient) [%],Eff. % (inhibition of fungal growth) (Pythium ultimum; 20 μg/mL of active ingredient) [%],Log P [1],chromatographic logP (physchem),further results
C#CCOc1ccccc1C1CC(c2csc(C3CCN(C(=O)C(C(=O)OC(C)C)n4nc(C(F)F)cc4C(F)F)CC3)n2)=NO1 (centres unmarked) [Example I-09],98,97,3.93^[a],,
CCOC(=O)CC(=O)N1CCC(c2nc(C3=NOC(c4c(Cl)cccc4OS(C)(=O)=O)C3)cs2)CC1 (centres unmarked) [Example I-49],100,88,2.53^[a],,
"C#CCOc1ccccc1C1CC(c2csc(C3CCN(C(=O)C(C(=O)OCC)n4nc(C(F)F)cc4C(F)F)CC3)n2)=NO1 (centres unmarked) [Example I-15, ethyl 2-[3,5-bis(difluoromethyl)-1H-pyrazol-1-yl]-3-oxo-3-[4-(4-{5-[2-(prop-2-yn-1-yloxy)phenyl]-4,5-dihydro-1,2-oxazol-3-yl}-1,3-thiazol-2-yl)piperidin-1-yl]propanoate]",,,,3.69,
CCOC(=O)C(C(=O)N1CCC(c2nc(C3=NOC(c4ccccc4OS(C)(=O)=O)C3)cs2)CC1)n1nc(C(F)(F)F)nc1C (centres unmarked) [Example I-06],100,94,3.14^[a],,
"N#CC1CCN(C(=O)CC(=O)OCc2ccccc2)CC1 [IV-02, benzyl 3-(4-cyanopiperidin-1-yl)-3-oxopropanoate]",,,,1.85,
CCOC(=O)C(Br)C(=O)N1CCC(c2nc(C3=NOC(c4c(Cl)cccc4OS(C)(=O)=O)C3)cs2)CC1 (centres unmarked) [Example I-34],100,94,2.92^[a],,
CC(C)OC(=O)C(C(=O)N1CCC(c2nc(C3=NOC(c4c(F)cccc4OS(C)(=O)=O)C3)cs2)CC1)n1nc(C(F)F)cc1C(F)F (centres unmarked) [Example I-17],,,3.49^[a],,Eff. % (inhibition of fungal growth) (Phytophthora infestans; [2]): 100%; Eff. % (inhibition of fungal growth) (Pythium ultimum; of active ingredient): 99%
"NC(=S)C1CCN(C(=O)C(C(=O)OCc2ccccc2)n2nc(C(F)F)cc2C(F)F)CC1 (centres unmarked) [II-01, benzyl 2-[3,5-bis(difluoromethyl)-1H-pyrazol-1-yl]-3-(4-carbamothioyl-piperidin-1-yl)-3-oxopropanoate]",,,,2.65,
CC(C)OC(=O)CC(=O)N1CCC(c2nc(C3=NOC(c4ccccc4C=O)C3)cs2)CC1 (centres unmarked) [Example I-56],100,84,2.57^[a],,
COCCOC(=O)CC(=O)N1CCC(c2nc(C3=NOC(c4ccccc4OS(C)(=O)=O)C3)cs2)CC1 (centres unmarked) [Example I-46],100,97,2.11^[a],,
"C#CCOc1ccccc1C1CC(c2csc(C3CCN(C(=O)C(Br)C(=O)OCC)CC3)n2)=NO1 (centres unmarked) [Example I-30, ethyl 2-bromo-3-oxo-3-[4-(4-{5-[2-(prop-2-yn-1-yloxy)phenyl]-4,5-dihydro-1,2-oxazol-3-yl}-1,3-thiazol-2-yl)piperidin-1-yl]propanoate]",,,,3.18,
C#CCOc1cccc(F)c1C1CC(c2csc(C3CCN(C(=O)C(C(=O)OCC)n4nc(C(F)F)cc4C(F)F)CC3)n2)=NO1 (centres unmarked) [Example I-04],,92,3.57^[a],,Eff. % (inhibition of fungal growth) (Phytophthora infestans; [2]): 100%
C#CCOc1cccc(F)c1C1CC(c2csc(C3CCN(C(=O)C(C(=O)OC(C)C)n4nc(C(F)F)cc4C(F)F)CC3)n2)=NO1 (centres unmarked) [Example I-07],,,3.81^[a],,Eff. % (inhibition of fungal growth) (Phytophthora infestans; [2]): 100%; Eff. % (inhibition of fungal growth) (Pythium ultimum; of active ingredient): 97%
"C#CCOc1ccccc1C1CC(c2csc(C3CCN(C(=O)OC(C)(C)C)CC3)n2)=NO1 (centres unmarked) [tert-butyl 4-(4-{5-[2-(prop-2-yn-1-yloxy)phenyl]-4,5-dihydro-1,2-oxazol-3-yl}-1,3-thiazol-2-yl)piperidine-1-carboxylate]",,,,4.07,
"C#CCOc1ccccc1C1CC(c2csc(C3CCNCC3)n2)=NO1 (centres unmarked) [4-(4-{5-[2-(prop-2-yn-1-yloxy)phenyl]-4,5-dihydro-1,2-oxazol-3-yl}-1,3-thiazol-2-yl)piperidinium chloride]",,,,1.26,
"CS(=O)(=O)Oc1ccccc1C1CC(c2csc(C3CCN(C(=O)C(C(=O)OCc4ccccc4)n4nc(C(F)F)cc4C(F)F)CC3)n2)=NO1 (centres unmarked) [Example I-60, benzyl 2-[3,5-bis(difluoromethyl)-1H-pyrazol-1-yl]-3-{4-[4-(5-{2-[(methylsulfonyl)oxy]phenyl}-4,5-dihydro-1,2-oxazol-3-yl)-1,3-thiazol-2-yl]piperidin-1-yl}-3-oxopropanoate]",,,,3.77,"inhibition at 0.25 µg/mL (Phytophthora infestans; Phytophthora infestans, 192 h, read-out: Eff. % (inhibition of fungal growth)): 100%"

SMILES,Eff. % (inhibition of fungal growth) (Phytophthora infestans; 20 μg/mL of active ingredient) [%],Eff. % (inhibition of fungal growth) (Pythium ultimum; 20 μg/mL of active ingredient) [%],Log P [1],chromatographic logP (physchem),further results
CCOC(=O)CC(=O)N1CCC(c2nc(C3=NOC(c4ccccc4OS(C)(=O)=O)C3)cs2)CC1 (centres unmarked) [Example I-50],98,94,2.30^[a],,
C#CCOc1cccc(F)c1C1CC(c2csc(C3CCN(C(=O)CC(=O)OC(CC)CCCCC)CC3)n2)=NO1 (centres unmarked) [Example I-40],100,93,4.42^[a],,
CCCCCC(CC)OC(=O)CC(=O)N1CCC(c2nc(C3=NOC(c4ccccc4C=O)C3)cs2)CC1 (centres unmarked) [Example I-55],100,70,4.27^[a],,
C#CCOc1ccccc1C1CC(c2csc(C3CCN(C(=O)CC(=O)OC(C)C)CC3)n2)=NO1 (centres unmarked) [Example I-52],87,86,2.94^[a],,
CCOC(=O)C(C(=O)N1CCC(c2nc(C3=NOC(c4ccccc4OS(C)(=O)=O)C3)cs2)CC1)n1nc(C)nc1C (centres unmarked) [Example I-20],100,87,2.24^[a],,
CC(C)OC(=O)CC(=O)N1CCC(c2nc(C3=NOC(c4c(F)cccc4OS(C)(=O)=O)C3)cs2)CC1 (centres unmarked) [Example I-47],100,93,2.53^[a],,
"N#CC1CCN(C(=O)C(Br)C(=O)OCc2ccccc2)CC1 (centres unmarked) [IV-03, benzyl 2-bromo-3-(4-cyanopiperidin-1-yl)-3-oxopropanoate]",,,,2.24,
CCOC(=O)C(Br)C(=O)N1CCC(c2nc(C3=NOC(c4ccccc4OS(C)(=O)=O)C3)cs2)CC1 (centres unmarked) [Example I-33],100,99,2.72^[a],,
CCOC(=O)C(Br)C(=O)N1CCC(c2nc(C3=NOC(c4c(F)cccc4OS(C)(=O)=O)C3)cs2)CC1 (centres unmarked) [Example I-27],100,100,2.72^[a],,
C#CCOc1cccc(Cl)c1C1CC(c2csc(C3CCN(C(=O)C(C(=O)OC(C)(C)C)n4nc(C(F)F)cc4C(F)F)CC3)n2)=NO1 (centres unmarked) [Example I-63],,,4.31^[a],,Eff. % (inhibition of fungal growth) (Phytophthora infestans; [2]): 100%; Eff. % (inhibition of fungal growth) (Pythium ultimum; of active ingredient): 90%
C#CCOc1ccccc1C1CC(c2csc(C3CCN(C(=O)C(C(=O)OC(C)(C)C)n4nc(C(F)F)cc4C(F)F)CC3)n2)=NO1 (centres unmarked) [Example I-65],,,4.16^[a],,Eff. % (inhibition of fungal growth) (Phytophthora infestans; [2]): 100%; Eff. % (inhibition of fungal growth) (Pythium ultimum; of active ingredient): 91%
CCOC(=O)C(C(=O)N1CCC(c2nc(C3=NOC(c4ccccc4OS(C)(=O)=O)C3)cs2)CC1)n1nc(C(F)F)cc1C(F)F (centres unmarked) [Example I-11],100,97,3.28^[a],,
C#CCOc1cccc(F)c1C1CC(c2csc(C3CCN(C(=O)C(Br)C(=O)OCC)CC3)n2)=NO1 (centres unmarked) [Example I-26],100,100,2.98^[a],,
"N#CC1CCN(C(=O)C(C(=O)OCc2ccccc2)n2nc(C(F)F)cc2C(F)F)CC1 (centres unmarked) [IV-04, benzyl 2-[3,5-bis(difluoromethyl)-1H-pyrazol-1-yl]-3-(4-cyanopiperidin-1-yl)-3-oxopropanoate]",,,,2.94,
"CS(=O)(=O)Oc1ccccc1C1CC(C(=O)CCl)=NO1 (centres unmarked) [2-[3-(chloroacetyl)-4,5-dihydro-1,2-oxazol-5-yl]phenyl methanesulfonate]",,,,2.37,

# From US9924721B2 (priority 2013, dated 2018)
